Reference: ChEMBL document CHEMBL5465560, “Selectivity Literature for EUbOPEN Chemogenomic Library” (2024)
Each block holds one compound with its values, some of them ahead of it.

Columns and labels:
[1] = target: Serine/threonine-protein kinase MARK2 (Homo sapiens) (UniProt Q7KZI7); experiment: Selectivity interaction (Millipore kinase profiler) EUB0000124b MARK2; details: at 10 µM
[2] = target: Tyrosine-protein kinase ABL1 (Homo sapiens, UniProt P00519); experiment: Selectivity interaction (KinomeScan (DiscoverX)) EUB0001049a ABL1; details: at 1 µM
[3] = target: T1, Hormonally up-regulated neu tumor-associated kinase (Homo sapiens) (UniProt P57058); experiment: Selectivity interaction (KinomeScan (DiscoverX)) EUB0000595a HUNK; details: at 10 µM
T1 sequence (whole entry): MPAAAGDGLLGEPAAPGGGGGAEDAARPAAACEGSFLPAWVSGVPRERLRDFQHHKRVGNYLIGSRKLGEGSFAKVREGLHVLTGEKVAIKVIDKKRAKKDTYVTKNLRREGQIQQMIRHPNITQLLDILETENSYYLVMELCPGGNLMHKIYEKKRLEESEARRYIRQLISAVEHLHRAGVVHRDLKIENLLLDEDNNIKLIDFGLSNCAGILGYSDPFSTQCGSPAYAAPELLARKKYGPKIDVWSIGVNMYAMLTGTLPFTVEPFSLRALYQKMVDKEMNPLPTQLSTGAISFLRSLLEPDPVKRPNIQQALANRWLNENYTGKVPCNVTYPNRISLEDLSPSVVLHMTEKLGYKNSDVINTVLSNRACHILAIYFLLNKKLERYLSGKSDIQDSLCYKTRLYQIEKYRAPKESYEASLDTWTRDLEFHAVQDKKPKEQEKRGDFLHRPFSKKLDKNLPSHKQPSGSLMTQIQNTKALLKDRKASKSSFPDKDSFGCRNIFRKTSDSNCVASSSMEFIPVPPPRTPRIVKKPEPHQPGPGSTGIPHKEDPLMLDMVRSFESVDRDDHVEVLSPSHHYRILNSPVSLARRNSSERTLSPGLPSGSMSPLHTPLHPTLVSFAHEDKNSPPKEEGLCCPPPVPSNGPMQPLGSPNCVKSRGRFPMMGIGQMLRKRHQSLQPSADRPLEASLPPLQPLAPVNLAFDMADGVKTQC

[4] = target: T2, Ankyrin repeat and protein kinase domain-containing protein 1 (Homo sapiens) (UniProt Q8NFD2); details: at 10 µM
T2 sequence (whole entry): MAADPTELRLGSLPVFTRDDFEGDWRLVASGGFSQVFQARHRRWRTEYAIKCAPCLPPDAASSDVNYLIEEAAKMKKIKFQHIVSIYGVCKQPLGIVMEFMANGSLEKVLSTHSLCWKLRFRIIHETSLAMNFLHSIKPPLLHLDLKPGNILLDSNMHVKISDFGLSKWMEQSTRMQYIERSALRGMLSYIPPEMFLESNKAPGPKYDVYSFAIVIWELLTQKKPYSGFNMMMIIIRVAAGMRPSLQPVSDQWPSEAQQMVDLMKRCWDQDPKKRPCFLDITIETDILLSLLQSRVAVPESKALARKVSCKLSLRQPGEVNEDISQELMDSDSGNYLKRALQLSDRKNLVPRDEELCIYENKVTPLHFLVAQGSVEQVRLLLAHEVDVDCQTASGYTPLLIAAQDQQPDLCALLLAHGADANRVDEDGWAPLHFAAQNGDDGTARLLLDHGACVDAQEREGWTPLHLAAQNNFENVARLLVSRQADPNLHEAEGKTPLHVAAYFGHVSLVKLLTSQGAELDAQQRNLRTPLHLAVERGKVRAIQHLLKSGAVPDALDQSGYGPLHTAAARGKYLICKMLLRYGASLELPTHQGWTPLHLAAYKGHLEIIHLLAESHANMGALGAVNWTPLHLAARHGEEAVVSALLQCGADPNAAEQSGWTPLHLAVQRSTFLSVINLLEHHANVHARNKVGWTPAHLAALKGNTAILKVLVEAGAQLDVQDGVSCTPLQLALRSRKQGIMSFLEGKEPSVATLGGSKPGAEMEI

[5] = target: T3, Serine/threonine-protein kinase LATS2 (Homo sapiens) (UniProt Q9NRM7); experiment: Selectivity interaction (KinomeScan (DiscoverX)) EUB0000229b LATS2; details: at 10 µM
T3 sequence (whole entry): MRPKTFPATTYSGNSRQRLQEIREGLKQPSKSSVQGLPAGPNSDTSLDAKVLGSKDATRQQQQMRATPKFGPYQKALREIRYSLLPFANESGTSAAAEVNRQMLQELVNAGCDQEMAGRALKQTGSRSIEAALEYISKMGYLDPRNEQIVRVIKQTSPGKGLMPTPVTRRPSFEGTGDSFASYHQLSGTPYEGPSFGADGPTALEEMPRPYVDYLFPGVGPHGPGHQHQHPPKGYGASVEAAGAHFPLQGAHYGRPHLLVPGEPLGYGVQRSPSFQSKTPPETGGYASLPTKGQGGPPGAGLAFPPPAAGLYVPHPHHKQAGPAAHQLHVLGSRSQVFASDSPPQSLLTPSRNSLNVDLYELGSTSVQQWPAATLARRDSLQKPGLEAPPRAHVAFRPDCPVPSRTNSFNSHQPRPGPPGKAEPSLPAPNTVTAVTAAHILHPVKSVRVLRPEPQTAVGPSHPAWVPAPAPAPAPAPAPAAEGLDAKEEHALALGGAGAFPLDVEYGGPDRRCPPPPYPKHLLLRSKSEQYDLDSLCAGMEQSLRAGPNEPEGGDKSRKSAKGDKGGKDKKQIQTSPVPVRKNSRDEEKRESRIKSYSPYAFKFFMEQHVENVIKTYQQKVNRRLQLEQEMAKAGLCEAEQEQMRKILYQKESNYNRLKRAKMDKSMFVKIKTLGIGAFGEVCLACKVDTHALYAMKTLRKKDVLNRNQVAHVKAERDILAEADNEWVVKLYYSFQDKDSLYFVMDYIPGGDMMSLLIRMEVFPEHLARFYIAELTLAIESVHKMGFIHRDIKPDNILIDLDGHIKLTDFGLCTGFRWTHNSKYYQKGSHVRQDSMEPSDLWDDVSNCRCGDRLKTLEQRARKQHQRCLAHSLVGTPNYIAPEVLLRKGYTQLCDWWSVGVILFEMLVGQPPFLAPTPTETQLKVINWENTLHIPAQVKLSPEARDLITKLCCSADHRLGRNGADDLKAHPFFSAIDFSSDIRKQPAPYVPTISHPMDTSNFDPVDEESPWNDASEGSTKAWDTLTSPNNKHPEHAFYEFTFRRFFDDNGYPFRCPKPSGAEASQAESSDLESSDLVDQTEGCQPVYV

[6] = target: Ribosomal protein S6 kinase alpha-5 (Homo sapiens) (UniProt O75582); experiment: Selectivity interaction (SelectScreen profiling (Invitrogen)) EUB0000607a RPS6KA5; details: at 2 µM
Chain of Ribosomal protein S6 kinase alpha-5 (Homo sapiens) (O75582 whole entry, looked up): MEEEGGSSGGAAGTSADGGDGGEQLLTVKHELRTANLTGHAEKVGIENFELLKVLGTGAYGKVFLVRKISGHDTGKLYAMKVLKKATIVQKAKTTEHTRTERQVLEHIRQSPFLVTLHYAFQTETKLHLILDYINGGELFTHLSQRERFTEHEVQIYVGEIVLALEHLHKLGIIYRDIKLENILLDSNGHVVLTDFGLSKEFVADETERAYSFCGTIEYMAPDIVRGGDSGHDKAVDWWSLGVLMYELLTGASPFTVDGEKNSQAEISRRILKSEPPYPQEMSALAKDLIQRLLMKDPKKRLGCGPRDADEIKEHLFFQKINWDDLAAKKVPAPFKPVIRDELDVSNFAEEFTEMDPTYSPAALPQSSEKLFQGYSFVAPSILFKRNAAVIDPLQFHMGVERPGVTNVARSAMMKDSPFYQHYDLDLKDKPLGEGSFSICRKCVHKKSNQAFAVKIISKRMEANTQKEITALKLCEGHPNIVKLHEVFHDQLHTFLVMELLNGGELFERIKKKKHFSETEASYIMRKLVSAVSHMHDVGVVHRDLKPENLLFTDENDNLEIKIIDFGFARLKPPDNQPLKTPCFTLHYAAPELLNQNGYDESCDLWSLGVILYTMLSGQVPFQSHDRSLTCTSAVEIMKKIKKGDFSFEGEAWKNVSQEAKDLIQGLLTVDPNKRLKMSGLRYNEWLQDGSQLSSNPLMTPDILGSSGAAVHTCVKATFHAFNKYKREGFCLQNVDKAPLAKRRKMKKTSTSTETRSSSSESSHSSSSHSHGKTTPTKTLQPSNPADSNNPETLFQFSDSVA

Chain of Serine/threonine-protein kinase MARK2 (Homo sapiens) (Q7KZI7 whole entry): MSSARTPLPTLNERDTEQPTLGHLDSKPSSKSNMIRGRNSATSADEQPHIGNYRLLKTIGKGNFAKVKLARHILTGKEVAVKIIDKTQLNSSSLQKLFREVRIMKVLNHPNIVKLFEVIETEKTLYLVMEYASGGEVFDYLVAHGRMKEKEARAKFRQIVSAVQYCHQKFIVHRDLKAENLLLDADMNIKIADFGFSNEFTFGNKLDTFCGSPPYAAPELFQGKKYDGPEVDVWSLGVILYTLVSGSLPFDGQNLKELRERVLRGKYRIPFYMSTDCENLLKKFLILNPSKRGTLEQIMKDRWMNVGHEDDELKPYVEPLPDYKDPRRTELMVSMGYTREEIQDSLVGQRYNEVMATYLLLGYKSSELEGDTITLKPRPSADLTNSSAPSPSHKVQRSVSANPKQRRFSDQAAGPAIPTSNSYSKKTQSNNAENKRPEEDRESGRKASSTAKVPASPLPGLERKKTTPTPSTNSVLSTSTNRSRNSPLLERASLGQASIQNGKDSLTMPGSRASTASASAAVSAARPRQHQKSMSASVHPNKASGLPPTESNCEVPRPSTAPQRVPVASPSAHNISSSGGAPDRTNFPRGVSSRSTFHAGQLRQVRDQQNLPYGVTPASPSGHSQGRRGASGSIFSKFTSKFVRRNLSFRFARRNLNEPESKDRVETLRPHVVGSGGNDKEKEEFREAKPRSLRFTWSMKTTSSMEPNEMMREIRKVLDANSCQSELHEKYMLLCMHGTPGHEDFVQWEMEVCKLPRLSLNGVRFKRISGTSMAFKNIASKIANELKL
Chain of Tyrosine-protein kinase ABL1 (P00519 whole entry): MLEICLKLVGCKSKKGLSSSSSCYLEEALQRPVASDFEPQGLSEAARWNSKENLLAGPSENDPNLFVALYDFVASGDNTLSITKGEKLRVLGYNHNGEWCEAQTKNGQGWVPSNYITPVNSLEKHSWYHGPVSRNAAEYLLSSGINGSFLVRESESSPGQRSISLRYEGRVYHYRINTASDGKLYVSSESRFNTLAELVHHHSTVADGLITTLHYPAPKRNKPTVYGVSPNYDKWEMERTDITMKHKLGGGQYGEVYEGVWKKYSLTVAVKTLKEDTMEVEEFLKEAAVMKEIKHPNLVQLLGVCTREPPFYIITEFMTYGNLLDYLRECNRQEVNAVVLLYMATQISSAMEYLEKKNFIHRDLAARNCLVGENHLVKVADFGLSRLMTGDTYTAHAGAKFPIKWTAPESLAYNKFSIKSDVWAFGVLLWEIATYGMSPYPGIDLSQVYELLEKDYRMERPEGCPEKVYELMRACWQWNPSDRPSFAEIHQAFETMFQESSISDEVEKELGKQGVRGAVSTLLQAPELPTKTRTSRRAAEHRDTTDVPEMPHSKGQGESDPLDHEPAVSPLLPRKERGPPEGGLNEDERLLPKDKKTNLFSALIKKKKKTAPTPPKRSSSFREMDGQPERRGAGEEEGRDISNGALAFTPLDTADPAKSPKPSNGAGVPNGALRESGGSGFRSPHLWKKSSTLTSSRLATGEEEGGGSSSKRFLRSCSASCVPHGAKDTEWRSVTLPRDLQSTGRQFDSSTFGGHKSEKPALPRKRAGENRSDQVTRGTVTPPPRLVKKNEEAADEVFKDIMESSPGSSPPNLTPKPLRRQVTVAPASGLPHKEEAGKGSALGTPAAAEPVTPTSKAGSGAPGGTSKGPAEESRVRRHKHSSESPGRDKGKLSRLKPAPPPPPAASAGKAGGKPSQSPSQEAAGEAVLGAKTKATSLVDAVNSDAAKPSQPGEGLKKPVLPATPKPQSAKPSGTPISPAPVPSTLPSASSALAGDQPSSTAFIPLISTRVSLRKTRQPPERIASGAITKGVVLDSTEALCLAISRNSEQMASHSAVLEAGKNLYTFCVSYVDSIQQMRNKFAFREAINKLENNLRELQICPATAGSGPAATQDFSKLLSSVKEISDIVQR

% of control [1]: 116%
Structure (SMILES): CC(=O)Nc1cccc(-n2c(=O)n(C3CC3)c(=O)c3c(Nc4ccc(I)cc4F)n(C)c(=O)c(C)c32)c1

Structure (SMILES): COc1cc(Nc2nc(C)cc(-c3cnn4nc(OC)ccc34)n2)cc(C(F)(F)F)c1
% of control [2]: 84%

Structure (SMILES): COCC(=O)NC/C=C/c1ccc2ncnc(Nc3ccc(Oc4ccc(C)nc4)c(C)c3)c2c1 [CP-724714]
% of control [3]: 70% | % of control [4]: 60%

Structure (SMILES): COc1cc(N(C)c2ccnc3ccc(C(F)(F)F)cc23)cc(OC)c1OC
% binding [5]: 89%

Structure (SMILES): CNC(=O)Nc1ccc(-c2nc(N3CC4CCC(C3)O4)c3cnn(C4CCC5(CC4)OCCO5)c3n2)cc1
% of inhibition [6]: 1%
